Laboratory results: US12617759B2, “Modifier of four-membered ring derivative, preparation method and application thereof” (Shanghai Hansoh Biomedical Co., Ltd., priority 2019, dated 2026)

Tests used:
[1] = Stability in human liver microsome in vitro; format: in vitro ADME; settings: for half-life at 1 μM / microsomal CLint at 1 μM: human liver microsomes, pH 7.4, 1 μM compound, NADPH/UDPGA; for half-life at 1 μM: read-out: Half life (t1/2); for microsomal CLint at 1 μM: read-out: Intrinsic clearance rate (CLint)
Method: (§1) To evaluate the metabolic stability of the compounds of the present invention in liver microsome in vitro.
(§2) Formulation of the working solution of the compound: 2 μL of the stock solution of the compound was added to 998 μL of phosphate buffer, and the final concentration was 20 μM.
(§3) 78.1 μL of 20 mg/mL microsome was diluted to 2.5 mL with 100 mM phosphate buffer and mixed well, and the final concentration was 0.625 mg/mL.
(§4) 33.3 mg of NADPH and 25.8 mg of UDPGA were weighed respectively, followed by the addition of 2 mL of 100 mM phosphate buffer. The final concentrations were 20 mM.
(§5) 1 mg of Alamethicin was weighed, to which 200 μL of DMSO was added to obtain a 5 mg/mL solution. 10 μL of this solution was added to 990 μL of phosphate buffer (pH 7.4), and the final concentration was 50 μg/mL.
(§6) 400 μL of the formulated liver microsome, 25 μL of the working solution of the compound (10 μM) and 25 μL of Alamethicin (50 μg/mL) were added to a 96-well plate successively, which was then pre-incubated at 37° C. for 10 min. 50 μL of the formulated NADPH/UDPGA was added to initiate the reaction, and the plate was incubated at 37° C. The total volume of the reaction system was 500 μL. The final contents of the components are as follows:
(§7) […] The resulting sample was centrifuged at 4000 g for 10 min, and the supernatant was collected for LC-MS/MS analysis.

[2] = Stability in rat liver microsome in vitro; format: in vitro ADME, SD rat; settings: for half-life at 1 μM / microsomal CLint at 1 μM: SD, rat liver microsomes, pH 7.4, 1 μM compound, NADPH/UDPGA; for half-life at 1 μM: read-out: Half life (t1/2); for microsomal CLint at 1 μM: read-out: Intrinsic clearance rate (CLint)
Method: as §1, §2, §3, §4, §5, §6, §7

[3] = Stability in dog liver microsome in vitro; format: in vitro ADME; settings: for half-life at 1 μM / microsomal CLint at 1 μM: dog liver microsomes, pH 7.4, 1 μM compound, NADPH/UDPGA; for half-life at 1 μM: read-out: Half life (t1/2); for microsomal CLint at 1 μM: read-out: Intrinsic clearance rate (CLint)
Method: as §1, §2, §3, §4, §5, §6, §7

[4] = molecular target: T1, Human Dopamine D3 Receptor membrane (Homo sapiens, UniProt P35462); assay: Radioligand binding assay, dopamine D3 receptor ([3H]-methylspiperone)
T1 construct: purchased PerkinElmer ES-173-M400UA
Method: The objective of this test example is to determine the affinity of the compounds for dopamine D3 receptor.
(§8) 0.5 to 5 μL of the test compounds (0.005 nM to 100 nM, 10 concentrations in total) and 100 μL of buffer were added to a 96-well assay plate. 0.5 μL of cell membrane and 300 μL of buffer were added to each well. [^3H]-methylspiperone was added to the buffer, and the plate was incubated at 27° C. for 30 min. The […]-96 GF/B filter plate pre-incubated with 0.5% PEI for 1 h was washed twice with the buffer (1 mL/well). The cell membrane suspension was added to the […]-96 GF/B filter plate, washed 4 times, and incubated at 55° C. for 10 min. 40 μL of ULTIMA GOLD was added to each well, and liquid scintillation counting was carried out.
(§9) The CPM (Counts per minute) values were determined by TopCount. […] The 10 concentrations of the compound were from 100 nM to 0.005 nM after 3-fold dilution of the reaction system. The percent inhibition rate and ten-point concentration data were fitted to the parametric nonlinear logistic equation by using GraphPad prism to calculate the IC50 values of the compound.

[5] = molecular target: T2, D3 receptor (Homo sapiens, UniProt P35462); assay: cAMP content in cells stably expressing D3 receptors (CHO-D3); format: cell-based; settings: forskolin, agonistic activity
T2 construct: expressed in transfected cells; host or cells: CHO (CHO-D3, G418 selection)
Method: To determine the activation effect of the compounds on D3 receptor.
3. Experimental Method: • 1. Preparation of the buffer: 1*HBSS+20 mM HEPES+0.1% BSA+500 μM IBMX. • Complete medium: Ham's F12K+10% fetal bovine serum+1*penicillin-streptomycin+400 µg/mL G418. • 2. CHO-D3 cells were cultured in the complete medium at 37° C., 5% C02. After TrypLE digestion, the cells were resuspended in the experimental buffer, and seeded into a 384-well cell culture plate at a seeding density of 8000 cells per well. • 3. The experimental buffer (1*HBSS, 0.1% BSA, 20 mM HEPES and 500 μM IBMX) was prepared. The compound was diluted with the buffer. 2.5 μL of the compound solution was added to each well, and the plate was incubated at 37° C. for 10 minutes. The forskolin was diluted to 8 μM (8*) with the experimental buffer. 2.5 μL of the diluted 8*forskolin was added, and the plate was incubated at 37° C. for 30 minutes. cAMP-d2 and Anti-cAMP-Eu^3+ were thawed, and diluted by 20-fold with the lysis buffer. 10 μL of cAMP-d2 was added to the experimental well, followed by the addition of 10 μL of Anti-cAMP-Eu^3+. The reaction plate was centrifuged at 200 g for 30 s at room temperature, and left to stand at 25° C. for 1 h. Data was collected using Envision. 4. […]

[6] = molecular target: T3, 5-HT2A receptor (Homo sapiens, UniProt P28223); assay: Radioligand binding assay, 5-HT2A receptor ([3H]-Ketanserin); parameters: purchased PerkinElmer; settings: human 5-HT2A receptor membrane, read-out: 5HT-2A Binding IC50
Method: The objective of this test example is to determine the affinity of the compounds for 5-HT2A receptor.
as §8, with “[^3H]-Ketanserin” for “[^3H]-methylspiperone”
as §9

[7] = molecular target: T3, 5-HT2A receptor; assay: Calcium ion mobility in cells stably expressing 5-HT2A receptors (Flp-In-CHO-5HT2A, FLIPR); format: cell-based; parameters: expressed in transfected cells; settings: Flp-In-CHO-5HT2A stable pool, inhibition of 5HT response
Method: To determine the inhibitory effect of the compounds on 5-HT2A receptor.
3. […] Probenecid and BSA were added fresh on the day of the experiment. […] 4. Experimental Data Processing Method:
The calcium signal values were determined by FLIPR. The calculated output for each sampling time point in the experiment was the ratio of the 340/510 nm wavelength signals to 380/510 nm wavelength signals. The maximum minus minimum calculation was derived from the ratio signal curve. The percent inhibition rate and ten-point concentration data were fitted to the parametric nonlinear logistic equation by using GraphPad prism to calculate the IC50 values of the compound.

T3 sequence (P28223 whole entry): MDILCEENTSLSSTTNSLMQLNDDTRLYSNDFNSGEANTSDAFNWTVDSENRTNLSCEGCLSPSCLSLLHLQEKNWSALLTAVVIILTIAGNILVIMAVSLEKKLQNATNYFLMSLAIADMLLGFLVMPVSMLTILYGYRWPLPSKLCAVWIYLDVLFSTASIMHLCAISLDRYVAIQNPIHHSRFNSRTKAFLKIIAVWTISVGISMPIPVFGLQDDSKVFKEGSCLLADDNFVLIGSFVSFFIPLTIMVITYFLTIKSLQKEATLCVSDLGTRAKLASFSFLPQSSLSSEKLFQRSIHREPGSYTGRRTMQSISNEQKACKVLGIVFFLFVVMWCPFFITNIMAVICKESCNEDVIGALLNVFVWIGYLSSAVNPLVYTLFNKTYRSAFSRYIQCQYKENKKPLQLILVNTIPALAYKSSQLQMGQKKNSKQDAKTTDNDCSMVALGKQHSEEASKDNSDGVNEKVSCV
T1 sequence (P35462 whole entry): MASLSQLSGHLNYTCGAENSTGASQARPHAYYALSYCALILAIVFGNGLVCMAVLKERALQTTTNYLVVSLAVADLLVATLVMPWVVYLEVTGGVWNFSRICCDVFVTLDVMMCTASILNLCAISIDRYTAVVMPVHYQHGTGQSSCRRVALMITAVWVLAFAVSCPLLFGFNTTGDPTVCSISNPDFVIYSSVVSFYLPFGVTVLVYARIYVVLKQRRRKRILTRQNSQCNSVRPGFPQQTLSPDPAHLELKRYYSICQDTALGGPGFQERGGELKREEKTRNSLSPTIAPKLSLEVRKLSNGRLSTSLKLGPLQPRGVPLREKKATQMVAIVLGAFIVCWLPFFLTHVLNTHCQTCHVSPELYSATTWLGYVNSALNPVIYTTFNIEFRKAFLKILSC
T2 sequence (P35462 whole entry): as above

Compound | Remaining (%, 120 min) [1] | half-life at 1 μM [1] | microsomal CLint at 1 μM [1] | Remaining (%, 120 min) [2] | half-life at 1 μM [2] | microsomal CLint at 1 μM [2] | Remaining (%, 120 min) [3] | half-life at 1 μM [3] | microsomal CLint at 1 μM [3] | IC50 [4] | EC50 [5] | IC50 [6] | IC50 [7]
CN(C)C(=O)N[C@H]1CC[C@H](CCN2CCN(c3cccc(Cl)c3Cl)CC2)CC1 [Cariprazine, reference compound] | 34.4% | 1.29 h | 18 µL/min/mg | 19.1% | 0.878 h | 26.3 µL/min/mg | 21.4% | 0.835 h | 27.7 µL/min/mg |  |  |  | 
O=C(N[C@H]1C[C@H](CCN2CCN(c3cccc(Cl)c3Cl)CC2)C1)c1ncco1 [Example 20A, N-(Trans-3-(2-(4-(2,3-dichlorophenyl)piperazin-1-yl)ethyl)cyclobutyl)oxazole-2-carboxamide] | 42.8% | 1.77 h | 13.1 µL/min/mg | 25.4% | 1 h | 23.1 µL/min/mg | 29.2% | 1.18 h | 19.6 µL/min/mg |  |  |  | 
CC(C)(O)C(=O)N[C@H]1C[C@H](CCN2CCN(c3cccc(Cl)c3Cl)CC2)C1 [Example 11A] |  |  |  |  |  |  |  |  |  | 0.95 nM | 0.4 nM | 41.5 nM | 39 nM
O=C(N[C@H]1C[C@H](CCN2CCN(c3cccc(Cl)c3Cl)CC2)C1)C1(O)CC1 [Example 13A, N-(Trans-3-(2-(4-(2,3-dichlorophenyl)piperazin-1-yl)ethyl)cyclobutyl)-1-hydroxycyclopropane-1-carboxamide] | 53.3% | 2.31 h | 10 µL/min/mg |  |  |  |  |  |  |  |  |  | 
CC(C)(O)CC(=O)NC1CC(CCN2CCN(c3cccc(Cl)c3Cl)CC2)C1 (stereo not drawn) [Example 15, N-(3-(2-(4-(2,3-Dichlorophenyl)piperazin-1-yl)ethyl)cyclobutyl)-3-hydroxy-3-methylbutanamide] | 79.5% | 3.16 h | 18.3 µL/min/mg |  |  |  |  |  |  |  |  |  | 
Cc1ncc(C(=O)N[C@H]2C[C@H](CCN3CCN(c4cccc(Cl)c4Cl)CC3)C2)o1 [Example 24A] |  |  |  |  |  |  |  |  |  | 0.33 nM | 1.7 nM | 1.8 nM | 4.28 nM
CN(C)C(=O)NC1CC(CCN2CCN(c3cccc4sccc34)CC2)C1 (stereo not drawn) [Example 6, 3-(3-(2-(4-(Benzo[b]thiophen-4-yl)piperazin-1-yl)ethyl)cyclobutyl)-1,1-dimethylurea] | 61.2% | 1.27 h | 45.4 µL/min/mg |  |  |  |  |  |  |  |  |  | 
Cc1cc(C(=O)N[C@H]2C[C@H](CCN3CCN(c4cccc(Cl)c4Cl)CC3)C2)on1 [Example 22A] |  |  |  |  |  |  |  |  |  | 0.34 nM | 0.9 nM | 1.35 nM | 4.37 nM
O=C(NC1CC(CCN2CCN(c3cccc(Cl)c3Cl)CC2)C1)C1(O)CC1 (stereo not drawn) [Example 13, N-(3-(2-(4-(2,3-Dichlorophenyl)piperazin-1-yl)ethyl)cyclobutyl)-1-hydroxycyclopropane-1-carboxamide] | 63.0% | 1.55 h | 37.2 µL/min/mg |  |  |  |  |  |  |  |  |  | 
